Measured values reported in US10787436B2, “Inhibitors of cyclin-dependent kinase 7 (CDK7)” (Dana-Farber Cancer Institute, Inc., priority 2012, dated 2020).
Read-outs that look alike come from different tables or passages of the source.

Assays:
[1] = tested on: RNAP II CTD phosphorylation; test: RNAP II CTD phosphorylation immunoblot in Loucy cells (dose response, time course, washout); format: cell-based; details: for IC50: 4 hours
Protocol: Following the treatment, the cells were washed 2-fold with PBS. Fresh medium containing no inhibitors were added back to the cells. The cells were lysed at indicated time points, and the lysates were probed for RNAP II CTD phosphorylation.
CDK7 exerts its regulatory control of transcription largely by phosphorylating RNAP II CTD, which promotes active transcription. […] Reduction of Ser-5 phosphorylation was seen only at higher concentrations.
Covalent kinase inhibitors have several characteristics that functionally differentiate themselves from their reversible counterparts. […] Washout of compound I-23R, following a 4-hour administration led to the recovery of RNAP II CTD phosphorylation within 1 hour (FIG. 2C). […] This phenomenon was also visible using in vitro kinase reactions comparing pre-incubation of compound I-23 with compound I-23 introduced concurrently with ATP.

THP-1 = test: Proliferation assay, CellTiter-Glo, 72 hour; format: cell-based; details: blood cancer cell line, read-out: Inhibition of proliferation, THP-1
IRAK1 = IRAK1 (Homo sapiens (Human), UniProt P51617); test: Life Technologies Adapta kinase assay, IRAK1; format: biochemical; details: read-out: Calculated IC50, IRAK1
Sequence of IRAK1 (P51617 whole entry): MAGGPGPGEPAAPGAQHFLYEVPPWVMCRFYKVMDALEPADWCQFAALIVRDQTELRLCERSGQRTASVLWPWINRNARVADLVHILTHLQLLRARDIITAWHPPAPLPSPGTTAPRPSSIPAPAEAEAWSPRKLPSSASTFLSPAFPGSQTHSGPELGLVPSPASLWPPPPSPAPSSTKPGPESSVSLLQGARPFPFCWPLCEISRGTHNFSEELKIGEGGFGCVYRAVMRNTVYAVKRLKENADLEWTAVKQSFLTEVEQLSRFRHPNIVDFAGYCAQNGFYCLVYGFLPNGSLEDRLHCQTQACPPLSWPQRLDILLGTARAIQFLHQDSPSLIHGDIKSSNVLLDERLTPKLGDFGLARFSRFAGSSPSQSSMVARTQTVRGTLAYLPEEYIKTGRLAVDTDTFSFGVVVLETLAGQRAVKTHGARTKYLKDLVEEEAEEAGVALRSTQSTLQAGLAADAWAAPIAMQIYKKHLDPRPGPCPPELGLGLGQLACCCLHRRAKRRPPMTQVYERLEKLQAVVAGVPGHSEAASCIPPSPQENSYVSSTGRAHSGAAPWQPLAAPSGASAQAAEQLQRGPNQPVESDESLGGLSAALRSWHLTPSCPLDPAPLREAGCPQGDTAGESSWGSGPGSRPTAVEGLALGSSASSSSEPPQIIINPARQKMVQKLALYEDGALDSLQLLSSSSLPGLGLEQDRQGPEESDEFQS

HL60 = test: Proliferation assay, CellTiter-Glo, 72 hour; format: cell-based; details: blood cancer cell line, read-out: Inhibition of proliferation, HL60
MDA-MB231 = test: Proliferation assay, CellTiter-Glo, 72 hour; format: cell-based; details: breast cancer cell line, read-out: Inhibition of proliferation, MDA-MB231
MCF7 = test: Proliferation assay, CellTiter-Glo, 72 hour; format: cell-based; details: breast cancer cell line, read-out: Inhibition of proliferation, MCF7
RNAP II occupancy = test: RNAP II ChIP-seq in Jurkat cells; format: cell-based, human; details: 250 nM for 6 hours
Protocol: After the indicated treatment time, cells were crosslinked for 10 minutes at room temperature by the addition of one-tenth of the volume of 11% formaldehyde solution (11% formaldehyde, 50 mM Hepes (pH 7.3), 100 mM NaCl, 1 mM EDTA (pH 8.0), 0.5 mM EGTA (pH 8.0)) to the growth media followed by two washes with PBS. Following the final PBS wash, supernatant was aspirated, and the cell pellet was flash frozen in liquid nitrogen. Frozen crosslinked cells were stored at −80° C.
50 μl of Dynal magnetic beads (Sigma) were blocked with 0.5% BSA (w/v) in PBS. Magnetic beads were bound with 5 μg of the indicated antibody. Antibodies used are as follows: Total RNAP II (Rpb1 N-terminus): Santa Cruz sc-899; CDK7: Bethyl A300-405A. Crosslinked cells were lysed with lysis buffer 1 (50 mM Hepes (pH 7.3), 140 mM NaCl, 1 mM EDTA, 10% glycerol, 0.5% NP-40, and 0.25% Triton X-100) and washed with lysis buffer 2 (10 mM Tris-HCl (pH 8.0), 200 mM NaCl, 1 mM EDTA (pH 8.0) and 0.5 mM EGTA (pH 8.0)). […]
Illumina sequencing libraries were generated, and data were processed according to Lin et al., Cell (2012) 151:56-67. […] These criteria preserved only reads that mapped uniquely to the genome with 1 or fewer mismatches. […]

[2] = tested on: patient-derived chronic lymphocytic leukemia (CLL) isolates; test: Cell death of patient-derived CLL isolates, Annexin V staining, 24 hour; format: cell-based, human; details: read-out: Pro-death signaling, average EC50 values
Protocol: Clinical isolates of CLL were cultured with compounds of Formula (I) or flavopiridol and assessed for cell death after a 24 hour time course by Annexin V staining. […] Anti-proliferative effect was measured using cell titer glo analysis.
PBMCs freshly isolated from peripheral blood are seeded in 24 well plates at a volume of 0.5 ml and a concentration of 2×10^6 cells/ml. Compounds and controls are added to respective wells in a total volume of 2.5 μl. Plates are mixed gently and incubated approximately 24 hours at 37° C., 5% CO2. Apoptosis was measured in all cells from each well using the Annexin V: FITC Apoptosis Detection Kit I (BD Biosciences). Normalized % death was calculated as follows: [(% Dead Drug−% Dead DMSO)/(100%−% Dead DMSO)]×100

Compound: CN(C)C/C=C/C(=O)Nc1ccc(C(=O)Nc2cccc(Nc3ncc(Cl)c(-c4c[nH]c5ccccc45)n3)c2)cc1 [Formula I-23]
- IC50 ([1]; read-out: Cellular IC50 for RNAP II CTD Ser-2 phosphorylation): ~0.02 µM
- IC50 ([1]; read-out: Cellular IC50 for RNAP II CTD Ser-7 phosphorylation): ~0.004 µM
- Time to complete inhibition of target (inactivation of CDK7, RNAP II CTD phosphorylation) ([1]; treated 0 to 4 hours): 3 to 4 h
- Recovery of RNAP II CTD phosphorylation after inhibitor washout ([1]; washout following a 4-hour administration): did not restore normal CTD phosphorylation levels
- IC50 (THP-1): < 0.5 µM
- IC50 (IRAK1): < 0.1 µM
- IC50 (HL60): < 0.5 µM
- IC50 (MDA-MB231): < 0.5 µM
- IC50 (MCF7): < 0.5 µM
- RNAP II occupancy at the promoter proximal pause site (RNAP II occupancy): drastically diminished
- EC50 [2]: < 0.2 µM
